PMC11807261 (ACS infectious diseases, 2022)
Entries after “also recorded” stand apart in the source; their conditions may differ. Like-named read-outs stand apart in the source and are kept apart here.

What was measured:
[1] = molecular target: T1, Mtb GlnA1 (Mycobacterium tuberculosis, UniProt P9WN39); assay: biochemical
T1 construct: His6 (N); made in house; host or cells: E. coli BL21(DE3)

[2] = test system: Mtb H37Rv; assay type: cell-based, Mycobacterium tuberculosis
[3] = Cytotoxicity (CC50); assay type: cell-based; details: African green monkey, Vero E6 cells
[4] = molecular target: recombinant human glutamine synthetase (GS) (Homo sapiens, UniProt P15104); assay: biochemical; assay type: biochemical; details: for inhibition of recombinant human GS: LIN at 100 µM (Figure S7)
[5] = test system: THP-1 macrophages; assay type: cell-based
[6] = test system: Mtb H37Rv within THP-1 macrophages; assay type: cell-based, Mycobacterium tuberculosis
[7] = compounds directly from MMV Pathogen Box library plates, read-out: IC50 (μM), library
[8] = compounds resupplied from MMV, mean ± SE (n=3), read-out: IC50 (μM), resupply

T1 sequence (P9WN39 whole entry): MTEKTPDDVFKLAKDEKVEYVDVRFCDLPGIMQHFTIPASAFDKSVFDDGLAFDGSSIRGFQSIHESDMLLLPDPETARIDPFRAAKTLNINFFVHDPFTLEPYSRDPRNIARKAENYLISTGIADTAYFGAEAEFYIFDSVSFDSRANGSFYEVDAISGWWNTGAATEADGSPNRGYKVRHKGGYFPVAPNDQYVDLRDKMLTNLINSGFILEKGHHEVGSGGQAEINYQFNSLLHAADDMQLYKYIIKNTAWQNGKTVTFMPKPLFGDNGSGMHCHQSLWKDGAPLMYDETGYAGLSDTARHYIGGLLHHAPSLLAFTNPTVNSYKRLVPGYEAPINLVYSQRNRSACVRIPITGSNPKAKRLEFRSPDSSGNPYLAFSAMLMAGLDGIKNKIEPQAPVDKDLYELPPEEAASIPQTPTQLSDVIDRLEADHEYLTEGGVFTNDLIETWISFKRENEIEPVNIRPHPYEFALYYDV
recombinant human glutamine synthetase (GS), sequence (P15104 whole entry): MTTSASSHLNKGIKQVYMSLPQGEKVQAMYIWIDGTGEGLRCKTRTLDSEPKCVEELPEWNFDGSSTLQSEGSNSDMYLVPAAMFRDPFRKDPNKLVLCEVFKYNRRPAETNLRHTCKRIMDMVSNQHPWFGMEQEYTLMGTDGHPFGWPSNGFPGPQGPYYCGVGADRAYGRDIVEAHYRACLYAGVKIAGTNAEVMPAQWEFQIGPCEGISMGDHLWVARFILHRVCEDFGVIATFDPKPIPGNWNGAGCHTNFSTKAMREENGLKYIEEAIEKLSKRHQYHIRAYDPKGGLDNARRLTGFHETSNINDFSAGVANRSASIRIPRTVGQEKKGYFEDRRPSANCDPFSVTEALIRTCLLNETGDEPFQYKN

Cc1nc(-c2ccccn2)nc(N2CCC(Cc3ccccc3)C2)c1Cl (stereo not shown) [MMV659004]
IC50 [1, 7]: 1.14 µM
IC50 [1, 8]: 0.66 ± 0.04 µM

c1ccc(-c2nc(NC3CCCCC3)cc(C3CC3)n2)nc1 [MMV021013]
IC50 [1, 7]: 0.69 µM
IC50 [1, 8]: 0.69 ± 0.08 µM

C[C@]1(O)C[C@@H](c2nc(-c3ccc4ccc(-c5ccccc5)nc4c3)c3c(N)nccn32)C1 [LIN, linsitinib]
growth inhibition concentration (GIC) [2]: ~ 21 μM
CC50 [3]: 67500 nM
inhibition of recombinant human GS [4]: did not inhibit; also recorded: does not inhibit
level of mTOR phosphorylation [5]: reduce the level of mTOR phosphorylation
level of p62 (autophagy flux) [5]: seemingly reduced
apoptosis induction (cleaved caspase 3) ([5]; 10 μM LIN, Western blotting): no apoptosis induction
autophagy induction (LC3B-II converted from LC3B-I) ([5]; 10 μM LIN, Western blotting): induced autophagy
autophagosome and autolysosome forming puncta ([5]; mRFP-GFP-LC3 reporter THP-1, 10 μM LIN 24 h, Mtb-infected and uninfected): elevated
intracellular Mtb killing in combination with bedaquiline (CFU) [6]: eliminated more intracellular Mtb and improved the killing effect of BDQ
survival of intracellular Mtb (CFU) [6]: significantly decreased the survival

COc1ccc2cc(-c3nc(C(C)(C)C)[nH]c3-c3ccnc(N)c3)ccc2c1 [11a]
IC50 [1]: 0.53 ± 0.027 µM
inhibition of recombinant human GS [4]: did inhibit it considerably
IC50 ([4]; malachite green assay, read-out: IC50 against human GS): ~10400 nM

CP(=O)(O)CCC(N)C(=O)O (racemic) [PPT, DL-phosphinothricin]
IC50 [1]: 4.45 ± 0.19 µM

CC(C)(CN)c1nc(-c2ccc(Cl)c(O)c2)c(-c2ccnc(N)n2)[nH]1 [MMV030734]
IC50 [1, 7]: 1.38 µM
IC50 [1, 8]: 1.84 ± 0.09 µM

Cc1ccc(NC(=O)c2nc[nH]c2C(=O)Nc2nc3ccccc3[nH]2)c(C)c1 [MMV011903]
IC50 [1, 7]: 0.78 µM
IC50 [1, 8]: 1.63 ± 0.2 µM
